Values quoted from earlier work as cited in patent US12404360B2, “Method of preparing graft copolymer” (LG CHEM, LTD., priority 2019, dated 2025).

Columns and labels:
[1] = not given; remark: listed apart in the source

Row | Solubility in water at 20° C. | 10-hour half-life decomposition temperature in water [1] | 10-hour half-life decomposition temperature in methanol ([1]; in methanol) | SMILES | 10-hour half-life decomposition temperature in toluene [1]
1 | 35.2 g/100 g | 44 °C |  | CC(C)(/N=N/C(C)(C)C1=NCCN1)C1=NCCN1 [VA-044] | 
2 |  | 56 °C |  | CC(C)(/N=N/C(C)(C)C(=N)N)C(=N)N [VA-050] | 
3 | 14 g/100 g | 57 °C |  | CC(C)(/N=N/C(C)(C)C(=N)NCCC(=O)O)C(=N)NCCC(=O)O [VA-057] | 
4 | 0.5 g/100 g |  | 61 °C | CC(C)(/N=N/C(C)(C)C1=NCCN1)C1=NCCN1 [VA-061] | 
5 | 2.4 g/100 g | 86 °C |  | CC(C)(/N=N/C(C)(C)C(=O)NCCO)C(=O)NCCO [VA-086] | 
6 | 0.1 g/100 g | 69 °C |  | CC(C#N)(CCC(=O)O)/N=N/C(C)(C#N)CCC(=O)O (stereo not drawn) [VA-501] | 

Row | SMILES | Solubility in water at 20° C. | 10-hour half-life decomposition temperature in water [1] | 10-hour half-life decomposition temperature in methanol ([1]; in methanol) | 10-hour half-life decomposition temperature in toluene [1]
7 | CC(C)(C#N)/N=N/C(C)(C)C#N [AIBN] | < 0.1 g/100 g |  |  | 65 °C
8 | CC(C)CC(C)(C#N)/N=N/C(C)(C#N)CC(C)C (stereo not drawn) [Example V-65] | < 0.1 g/100 g |  |  | 51 °C
